Where two headings read alike, the source gives them in different places.
How the values were obtained:
human Cav3.2 channels [1] = target: T1, human Cav3.2 channels (Homo sapiens, UniProt O95180); assay: Intracellular calcium concentration measurement (Fluo-4 AM) in stable cells expressing human Cav3.2 channels, buffer A / buffer B; format: cell-based
T1 construct: expressed in transfected cells; host or cells: HEK293 cells (ATCC No. CRL-1573), plasmid pcDNA3.1(+)
Procedure, shortened: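 HEK293 cells stably expressing human Cav3.2, Fluo-4 loaded, preincubated 15 min at room temperature with compound (0.1% DMSO final) in buffer A (K+ equilibrium −92 mV) or B (−110 mV). After ionophore, KCl (83.8 or 91.8 mM) stimulus; 10 s fluorescence rise (ex 485/em 510 nm) gave % inhibition and IC50.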

human Cav3.2 channels [2] = target: T1, human Cav3.2 channels; assay: Electrophysiological evaluation, whole-cell patch-clamp with automatic patch-clamp system; format: cell-based; details: for inhibition at 0.3 µM: holding potential −80 mV, read-out: Cav3.2 channel current inhibition ratio at 0.3 μM of test compound (holding potential −80 mV)
Procedure: Electrophysiological Evaluation
Stable cell line expressing human Cav3.2 channels, which had been produced by Test method (1) of Example 140, was seeded in a 10-cm dish using DMEM medium containing 10% FBS, and the cells were cultured for 24 hours or longer under the conditions of 37° C. and 5% CO2. The cells were detached using Accutase and were used after being suspended in ice-cold extracellular solution. The Cav3.2 channel current was measured by the Whole-cell patch-clamp method using an automatic patch-clamp system (Port-a-Patch; Nanion Technologies GmbH, EPC-10; HEKA Elektronik GmbH, Patchmaster; HEKA Elektronik GmbH) and buffers described below. Measurement of the Cav3.2 channel current was carried out at room temperature, and the measurement conditions were set as follows: holding potential: −80 mV, depolarization potential: −20 mV, depolarization time: 100 msec, and depolarization frequency: 10 sec. The Cav3.2 channel current was defined as the peak value of the inward current observed when depolarization occurred at −20 mV.
For a test compound, a DMSO solution was diluted 1,000 times with extracellular solution, and thus a solution having an intended concentration was produced. The test compound was applied using an extracellular perfusion system (Nanion Technologies GmbH) until the Cav3.2 channel current was stabilized, and five concentrations at the maximum from the low-concentration side were cumulatively applied. The inhibition ratio of the test compound was calculated from the current value immediately before the application of the test compound and the change rate of the Cav3.2 channel current after the application of the test compound (conditions for a holding potential of −80 mV: test compound concentration of 0.3 μM, conditions for a holding potential of −100 mV: test compound concentration of 3 μM).
Extracellular solution: 135 mM NaCl, 4 mM KCl, 1 mM MgCl2, 5 mM CaCl2, 5 mM D-Glucose, and 10 mM HEPES, pH 7.4
Internal solution for electrode: 10 mM NaCl, 10 mM HEPES, 50 mM CsCl, 60 mM CsF, and 20 mM EGTA, pH 7.2

CYP3A4 = target: T2, CYP3A4 (Homo sapiens, UniProt P08684); assay: Evaluation of CYP3A4 activity inhibitory action; format: in vitro ADME; details: Human CYP3A4BR EasyCYP Bactosomes, 7-Benzyloxy-4-(trifluoromethyl)-coumarin
T2 construct: purchased Cypex, Ltd; host or cells: E. coli membranes (Bactosomes)
Procedure: Evaluation of CYP3A4 Activity Inhibitory Action
To a 50 mM potassium phosphate buffer solution (pH 7.4), 5 nM Human CYP3A4BR EasyCYP Bactosomes (Cypex, Ltd.), 50 μM 7-Benzyloxy-4-(trifluoromethyl)-coumarin, cofactor mix (0.0081 mM β-NADP^+, 0.4 mM G-6-P, 0.4 mM MgCl2, and 0.2 U/mL G-6-P DH(Y)), and 0.01% Pluronic F-127 were added, and the mixture was incubated for 45 minutes at 37° C. The reaction was initiated by adding the cofactor mix. After the incubation, 0.5 M Tris base/acetonitrile (20:80) was added thereto as a reaction terminating liquid, and the resulting mixture was stirred. Subsequently, the fluorescence intensity (excitation: 405 nm, emission: 535 nm) was measured. The reaction was carried out in duplicate. The results are presented as the inhibition rate at 10 μM of the test compound.

[3] = tested on: mouse partial sciatic nerve ligation (PSNL) model; assay: Mechanical allodynia in a mouse partial sciatic nerve ligation (PSNL) model, intraperitoneal administration; format: in vivo; details: intraperitoneally administered, 20 to 30 mg/kg, compared to the vehicle group
Procedure: Mechanical Allodynia in a Mouse Partial Sciatic Nerve Ligation (PSNL) Model
Production of a mouse PSNL model was carried out according to the method of Seltzer, et al. A mouse was subjected to inhalation anesthesia with isoflurane. The femoral region of the mouse was shaved and disinfected with isodine. The skin on the thighbone of the mouse was incised, the fascia underneath the skin was cut, and the biceps femoris muscle was divided at a site between the heads of muscles. The sciatic nerve underneath the incision was checked, and then the sciatic nerve was detached without damaging the nerve. The needle of an 8-0 silk suture with a needle was passed through the sciatic nerve so as to penetrate through the nerve, and thus a portion of about ½ to ⅓ of the sciatic nerve was ligated. The skin was sutured, and the mouse was kept for about 7 days. The surgery of a Sham control mouse was performed only for checking of the sciatic nerve, and the skin was sutured.
The measurement of pain threshold was carried out after the mouse was transferred into a cage for measurement and was waited until exploratory behavior had disappeared. […] The 50% threshold was calculated by an up-down method by referring to the method of Chaplan, et al. (Quantitative assessment of tactile allodynia in the […]. J Neurosci Methods, 53, 1994, 55-63). […]

[4] = Table 1, buffer A, equilibrium potential of potassium −92 mV, read-out: Inhibitory action of buffer A (inactivated state)
[5] = Table 1, buffer B, equilibrium potential of potassium −110 mV, read-out: Inhibitory action of buffer B (resting state or closed state)
[6] = Tables 2 to 6, buffer A, equilibrium potential of potassium −92 mV, read-out: Inhibitory action of buffer A (inactivated state)

T1 sequence (O95180 whole entry): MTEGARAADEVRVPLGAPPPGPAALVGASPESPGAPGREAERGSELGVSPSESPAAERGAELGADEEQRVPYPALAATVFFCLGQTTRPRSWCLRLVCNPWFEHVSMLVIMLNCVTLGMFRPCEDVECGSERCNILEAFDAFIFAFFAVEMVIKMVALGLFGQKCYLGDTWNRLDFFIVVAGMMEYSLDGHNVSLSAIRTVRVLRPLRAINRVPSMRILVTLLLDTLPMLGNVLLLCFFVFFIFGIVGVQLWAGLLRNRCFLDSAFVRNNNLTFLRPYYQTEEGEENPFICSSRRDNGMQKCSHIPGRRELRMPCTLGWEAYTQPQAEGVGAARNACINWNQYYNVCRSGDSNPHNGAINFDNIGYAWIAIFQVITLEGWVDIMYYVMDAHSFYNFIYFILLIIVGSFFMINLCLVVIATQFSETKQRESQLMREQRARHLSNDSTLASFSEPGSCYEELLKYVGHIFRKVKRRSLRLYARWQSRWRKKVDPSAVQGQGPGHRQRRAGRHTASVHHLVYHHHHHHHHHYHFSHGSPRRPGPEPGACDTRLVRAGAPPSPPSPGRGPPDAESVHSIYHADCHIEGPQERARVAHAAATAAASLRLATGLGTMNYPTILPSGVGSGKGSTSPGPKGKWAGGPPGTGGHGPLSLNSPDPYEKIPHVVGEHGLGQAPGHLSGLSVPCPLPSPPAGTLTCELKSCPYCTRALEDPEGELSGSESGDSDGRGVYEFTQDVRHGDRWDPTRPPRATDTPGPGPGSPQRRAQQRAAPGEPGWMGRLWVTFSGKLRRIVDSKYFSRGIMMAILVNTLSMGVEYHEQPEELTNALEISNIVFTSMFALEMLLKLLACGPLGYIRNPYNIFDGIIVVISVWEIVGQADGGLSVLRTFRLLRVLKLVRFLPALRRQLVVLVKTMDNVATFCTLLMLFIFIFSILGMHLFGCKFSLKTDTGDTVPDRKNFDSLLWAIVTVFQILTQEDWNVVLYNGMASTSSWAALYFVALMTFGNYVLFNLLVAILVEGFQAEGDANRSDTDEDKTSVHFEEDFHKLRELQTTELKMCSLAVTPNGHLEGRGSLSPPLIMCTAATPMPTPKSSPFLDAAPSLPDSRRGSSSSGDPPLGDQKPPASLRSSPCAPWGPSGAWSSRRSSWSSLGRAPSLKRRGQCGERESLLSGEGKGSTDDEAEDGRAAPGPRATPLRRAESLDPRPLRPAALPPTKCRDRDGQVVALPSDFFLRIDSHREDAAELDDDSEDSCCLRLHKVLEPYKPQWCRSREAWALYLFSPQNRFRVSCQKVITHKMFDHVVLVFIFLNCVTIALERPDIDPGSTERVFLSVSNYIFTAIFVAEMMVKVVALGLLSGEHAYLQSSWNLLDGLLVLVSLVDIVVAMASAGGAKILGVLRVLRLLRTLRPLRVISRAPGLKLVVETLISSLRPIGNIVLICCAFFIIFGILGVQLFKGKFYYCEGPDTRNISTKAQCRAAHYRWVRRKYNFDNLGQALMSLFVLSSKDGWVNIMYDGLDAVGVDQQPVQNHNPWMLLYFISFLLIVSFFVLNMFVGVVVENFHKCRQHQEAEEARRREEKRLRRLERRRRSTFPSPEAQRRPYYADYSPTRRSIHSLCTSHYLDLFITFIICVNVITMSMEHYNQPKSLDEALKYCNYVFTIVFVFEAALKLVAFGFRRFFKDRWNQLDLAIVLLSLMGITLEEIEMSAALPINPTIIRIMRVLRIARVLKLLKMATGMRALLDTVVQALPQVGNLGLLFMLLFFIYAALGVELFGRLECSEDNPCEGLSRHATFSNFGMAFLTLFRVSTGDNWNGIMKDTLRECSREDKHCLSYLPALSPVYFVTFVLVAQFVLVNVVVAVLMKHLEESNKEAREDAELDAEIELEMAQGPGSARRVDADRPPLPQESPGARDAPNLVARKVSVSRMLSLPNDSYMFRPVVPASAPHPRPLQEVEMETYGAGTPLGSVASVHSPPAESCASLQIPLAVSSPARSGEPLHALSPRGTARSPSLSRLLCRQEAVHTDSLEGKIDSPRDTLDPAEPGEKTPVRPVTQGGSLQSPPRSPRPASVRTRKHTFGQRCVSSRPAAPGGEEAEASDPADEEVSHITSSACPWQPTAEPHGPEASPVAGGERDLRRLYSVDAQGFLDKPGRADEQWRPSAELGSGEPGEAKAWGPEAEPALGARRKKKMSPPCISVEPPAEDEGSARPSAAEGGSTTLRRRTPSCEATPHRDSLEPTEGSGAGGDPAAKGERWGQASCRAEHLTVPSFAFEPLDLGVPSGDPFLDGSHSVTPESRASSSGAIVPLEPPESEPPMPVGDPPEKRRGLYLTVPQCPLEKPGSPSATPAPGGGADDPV
T2 sequence (P08684 whole entry): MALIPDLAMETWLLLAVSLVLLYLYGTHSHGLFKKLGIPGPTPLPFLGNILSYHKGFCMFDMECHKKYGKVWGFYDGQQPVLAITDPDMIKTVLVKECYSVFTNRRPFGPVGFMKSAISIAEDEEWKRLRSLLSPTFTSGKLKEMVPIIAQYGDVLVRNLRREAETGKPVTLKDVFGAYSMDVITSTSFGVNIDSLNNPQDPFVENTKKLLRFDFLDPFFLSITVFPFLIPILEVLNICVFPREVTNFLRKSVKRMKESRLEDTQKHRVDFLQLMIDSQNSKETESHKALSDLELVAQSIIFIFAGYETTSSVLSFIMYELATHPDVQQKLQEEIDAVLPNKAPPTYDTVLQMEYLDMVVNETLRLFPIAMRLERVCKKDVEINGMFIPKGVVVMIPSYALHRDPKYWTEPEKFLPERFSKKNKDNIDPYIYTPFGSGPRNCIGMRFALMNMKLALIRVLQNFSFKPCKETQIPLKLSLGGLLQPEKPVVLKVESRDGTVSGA

| Compound | IC50 (human Cav3.2 channels [1]; [4]) | IC50 (human Cav3.2 channels [1]; [5]) | inhibition at 0.3 µM (human Cav3.2 channels [2]) | Cav3.2 channel current inhibition ratio at 3 μM of test compound (holding potential −100 mV) (human Cav3.2 channels [2]) | CYP3A4 activity inhibition ratio at 10 μM of test compound (CYP3A4) | mechanical allodynia (pain threshold, von Frey filament test) [3] | IC50 (human Cav3.2 channels [1]; [6]) |
| --- | --- | --- | --- | --- | --- | --- | --- |
| C[C@@H](NC(=O)C1CC1c1nc2ccccc2[nH]1)c1ccc(OCC(F)(F)F)s1 (single isomer, unassigned) [Example 3A] | ≤ 100 nM | > 10000 nM | 60% | 13% | 12.7% | suppressed mechanical allodynia statistically significantly |  |
| C[C@@H](NC(=O)C1CC1c1nc2ccccc2[nH]1)c1ccc(C(=O)O)s1 (single isomer, unassigned) [Example 26] |  |  | 19% |  | 11.3% |  | 100 to 1000 nM |
| C[C@@H](NC(=O)C1CC1c1nc2cc(Cl)ccc2[nH]1)c1cnc(OCC(F)(F)F)s1 (single isomer, unassigned) [Example 64A] |  |  | 52% |  | 4.4% |  | ≤ 100 nM |
| C[C@@H](NC(=O)C1CC1c1nc2ccccc2[nH]1)c1ccc(C(=O)N2CCCCC2)s1 (stereo in doubt) [Example 61, Trans-2-(1H-benzo[d]imidazol-2-yl)-N—((R)-1-(5-(piperidine-1-carbonyl)thiophen-2-yl)ethyl)cyclopropane-1-carboxamide] |  |  | 53% |  | 4.5% |  | 100 to 1000 nM |
| C[C@@H](NC(=O)[C@@H]1CCN(CC(=O)NC(C)(C)C)C1)c1ccc(OCC(F)(F)F)s1.Cl [Example 15, (R)-1-(2-(tert-butylamino)-2-oxoethyl)-N—((R)-1-(5-(2,2,2-trifluoroethoxy)thiophen-2-yl)ethyl)pyrrolidine-3-carboxamide hydrochloride] | 100 to 1000 nM | 1000 to 10000 nM | 33% |  | 21.9% |  |  |
| C[C@@H](NC(=O)[C@@H]1CCN(CC(=O)NC23CC4CC(CC(C4)C2)C3)C1)c1ccc(OCC(F)(F)F)s1 [Example 36, (R)-1-(2-(adamantan-1-ylamino)-2-oxoethyl)-N—((R)-1-(5-(2,2,2-trifluoroethoxy)thiophen-2-yl)ethyl)pyrrolidine-3-carboxamide] |  |  | 94% |  | 81.0% |  | ≤ 100 nM |
| C[C@@H](NC(=O)[C@@H]1CCN(CC(=O)Nc2cc(Cl)cc(Cl)c2)C1)c1ccc(OCC(F)(F)F)s1 [Example 42, (R)-1-(2-((3,5-dichlorophenyl)amino)-2-oxoethyl)-N—((R)-1-(5-(2,2,2-trifluoroethoxy)thiophen-2-yl)ethyl)pyrrolidine-3-carboxamide] |  |  | 87% |  | 77.9% |  | ≤ 100 nM |
| C[C@@H](NC(=O)[C@@H]1CCN(CC(=O)C(C)(C)C)C1)c1ccc(OCC(F)(F)F)s1 [Example 43, (R)-1-(3,3-dimethyl-2-oxobutyl)-N—((R)-1-(5-(2,2,2-trifluoroethoxy)thiophen-2-yl)ethyl)pyrrolidine-3-carboxamide] |  |  | 32% |  | 23.6% |  | 100 to 1000 nM |
| C[C@@H](NC(=O)[C@H]1C[C@@H]1c1nc2ccccc2[nH]1)c1ccc(C(=O)N2CCC(F)(F)C2)s1 [Example 60, Trans-2-(1H-benzo[d]imidazol-2-yl)-N—((R)-1-(5-(3,3-difluoropyrrolidine-1-carbonyl)thiophen-2-yl)ethyl)cyclopropane-1-carboxamide] |  |  | 48% |  | −1.2% |  | 100 to 1000 nM |
| C[C@@H](NC(=O)[C@H]1C[C@@H]1c1nc2ccccc2[nH]1)c1cc2cc(F)ccc2[nH]1 [Example 63, (1S,2S)-2-(1H-benzo[d]imidazol-2-yl)-N—((R)-1-(5-fluoro-1H-indol-2-yl)ethyl)cyclopropane-1-carboxamide] |  |  | 91% |  | 45.7% |  | ≤ 100 nM |
| C[C@@H](NC(=O)[C@H]1C[C@@H]1c1nc2ccccc2[nH]1)c1cc2cc(F)c(F)cc2o1 [Example 91, (1S,2S)-2-(1H-benzo[d]imidazol-2-yl)-N—((R)-1-(5,6-difluorobenzofuran-2-yl)ethyl)cyclopropane-1-carboxamide] |  |  | 72% |  | 20.1% |  | ≤ 100 nM |
| C[C@@H](NC(=O)[C@H]1C[C@@H]1c1nc2ccccc2[nH]1)c1cc2c(F)cc(F)cc2o1 [Example 92, (1S,2S)-2-(1H-benzo[d]imidazol-2-yl)-N—((R)-1-(4,6-difluorobenzofuran-2-yl)ethyl)cyclopropane-1-carboxamide] |  |  | 74% |  | 23.6% |  | ≤ 100 nM |
| C[C@@H](NC(=O)[C@H]1C[C@@H]1c1nc2ccccc2[nH]1)c1cc2ccc(F)cc2o1 [Example 100, (1S,2S)-2-(1H-benzo[d]imidazol-2-yl)-N—((R)-1-(6-fluorobenzofuran-2-yl)ethyl)cyclopropane-1-carboxamide] |  |  | 90% | 52% | 27.9% |  | ≤ 100 nM |
| C[C@@H](NC(=O)[C@H]1C[C@@H]1c1nc2ccccc2[nH]1)c1nc2cc(F)ccc2o1 [Example 105, (1S,2S)-2-(1H-benzo[d]imidazol-2-yl)-N—((R)-1-(5-fluorobenzo[d]oxazol-2-yl)ethyl)cyclopropane-1-carboxamide] |  |  | 58% |  | 21.2% |  | 100 to 1000 nM |
| C[C@@H](NC(=O)[C@H]1C[C@@H]1c1nc2ccccc2[nH]1)c1nc2ccc(F)cc2o1 [Example 114, (1S,2S)-2-(1H-benzo[d]imidazol-2-yl)-N—((R)-1-(6-fluorobenzo[d]oxazol-2-yl)ethyl)cyclopropane-1-carboxamide] |  |  | 32% |  | 30.0% |  | 100 to 1000 nM |

Reference: US11420944B2, “Voltage-dependent t-type calcium channel blocker” (Nippon Chemiphar Co., Ltd., priority 2016, dated 2022)
